From patent US20130303507A1 (Novartis AG, priority 2011, published 2013) come the findings set out here.

The target of this assay is Cdk9/cyclinT1 (Homo sapiens, UniProt P50750). Put plainly: Cdk9/cyclinT1 Alpha Screen protocol. The class given is biochemical. Further details: Full length wild type Cdk9/cyclin T1 is purchased from Invitrogen; purchased Invitrogen PV4131. The conditions noted are these: individual determinations, read-out: CDK9_cyclinT1_AS2_IC50. The protocol: Cdk9/cyclinT1 Alpha Screen Protocol
Full length wild type Cdk9/cyclin T1 is purchased from Invitrogen, cat#PV4131. […] The cdk7tide peptide substrate, biotin-[…] -OH, is a custom synthesis purchased from the Tufts University Core Facility. The final concentration of cdk7tide peptide substrate is 200 nM. […] Phospho-Rpb1 CTD (ser2/5) substrate antibody is purchased from Cell Signaling Technology. The final concentration of antibody is 0.67 ug/ml. The Alpha Screen Protein A detection kit containing donor and acceptor beads is purchased from PerkinElmer Life Sciences. The final concentration of both donor and acceptor beads is 15 ug/ml. Alpha Screen is used for detection. […] The biotinylated-cdk7tide peptide substrate is bound to the streptavidin coated donor bead. The antibody is bound to the protein A coated acceptor bead. The antibody will bind to the phosphorylated form of the biotinylated-cdk7tide peptide substrate, bringing the donor and acceptor beads into close proximity. Laser irradiation of the donor bead at 680 nm generates a flow of short-lived singlet oxygen molecules. When the donor and acceptor beads are in close proximity, the reactive oxygen generated by the irradiation of the donor beads initiates a luminescence/fluorescence cascade in the acceptor beads. This process leads to a highly amplified signal with output in the 530-620 nm range. Assays are carried out in 50 mM Hepes, pH=7.5, 10 mM MgCl2, 0.1% Bovine Serum Albumin, 0.01% Tween-20, 1 mM Dithiothreitol, 2.5% Dimethyl Sulfoxide. Stop and detection steps are combined using 50 mM Hepes, pH=7.5, 18 mM EDTA, 0.1% Bovine Serum Albumin, 0.01% Tween-20.

pIC50: −log10 of the molar value. Where “and” joins values, the source holds several entries; their conditions need not be identical. Equal entries are not always repeated. Where two headings read alike, the source gives them in different places.

Sequence of Cdk9/cyclinT1 (P50750 whole entry): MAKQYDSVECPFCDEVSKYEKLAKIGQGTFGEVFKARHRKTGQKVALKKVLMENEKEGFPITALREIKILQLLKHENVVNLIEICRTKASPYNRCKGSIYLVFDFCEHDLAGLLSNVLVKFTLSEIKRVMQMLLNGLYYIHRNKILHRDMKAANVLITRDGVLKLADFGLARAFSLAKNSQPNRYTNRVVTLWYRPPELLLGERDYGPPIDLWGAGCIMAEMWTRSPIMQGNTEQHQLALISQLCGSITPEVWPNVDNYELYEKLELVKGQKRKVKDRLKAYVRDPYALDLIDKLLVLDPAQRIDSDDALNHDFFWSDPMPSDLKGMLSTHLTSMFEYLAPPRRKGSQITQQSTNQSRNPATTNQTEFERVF
Sequence of Cdk9/cyclinT1 (O60563 whole entry partner): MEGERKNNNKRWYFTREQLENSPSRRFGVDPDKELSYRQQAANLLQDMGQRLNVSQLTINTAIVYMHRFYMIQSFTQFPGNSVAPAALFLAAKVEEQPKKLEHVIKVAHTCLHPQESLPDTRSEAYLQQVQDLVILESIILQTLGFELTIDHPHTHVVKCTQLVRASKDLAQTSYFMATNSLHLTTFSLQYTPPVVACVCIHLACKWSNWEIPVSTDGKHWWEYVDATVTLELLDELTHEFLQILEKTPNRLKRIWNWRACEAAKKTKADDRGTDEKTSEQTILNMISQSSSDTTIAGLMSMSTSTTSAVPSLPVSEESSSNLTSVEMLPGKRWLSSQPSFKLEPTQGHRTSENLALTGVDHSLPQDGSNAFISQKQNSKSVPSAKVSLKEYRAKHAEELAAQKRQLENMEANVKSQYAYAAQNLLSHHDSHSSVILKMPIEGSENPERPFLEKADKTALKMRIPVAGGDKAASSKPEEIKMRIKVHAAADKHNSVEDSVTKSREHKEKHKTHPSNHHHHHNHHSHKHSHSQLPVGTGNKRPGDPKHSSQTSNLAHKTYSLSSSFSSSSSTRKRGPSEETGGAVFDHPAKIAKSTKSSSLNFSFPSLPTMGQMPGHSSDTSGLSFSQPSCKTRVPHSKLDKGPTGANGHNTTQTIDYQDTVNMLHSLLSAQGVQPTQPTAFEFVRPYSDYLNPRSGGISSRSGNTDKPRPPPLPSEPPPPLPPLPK

Consider `[2H][C@@](C)(COC)N[C@H]1CC[C@H](Nc2cc(-c3cccc(NCC4(C#N)CCOCC4)n3)c(Cl)cn2)CC1` [Compound 596], for which, for the setting “neutral species”, the pIC50 is above 9.00.

Consider `C[C@H](N[C@H]1CC[C@H](Nc2cc(-c3cccc(NCC4(C#N)CCOCC4)n3)c(Cl)cn2)CC1)[C@@H](C)O` [Compound 541], for which the pIC50 (TFA salt) was 9.52.

Take `COC[C@H](C)NC[C@H]1CC[C@H](Nc2cc(-c3cccc(NCC4(C#N)CCOCC4)n3)c(Cl)cn2)CC1` [Compound 533]: for the setting “TFA salt”, the pIC50 was 9.06.

For `C[C@@](O)(CN[C@H]1CC[C@H](Nc2cc(-c3cccc(NCC4(C#N)CCOCC4)n3)ccn2)CC1)C(F)(F)F` [Compound 580], the pIC50 (TFA salt) was 9.01.

For the compound `N#CC1(CNc2cccc(-c3cc(N[C@H]4CC[C@H](N5CCC6(COC6)C5)CC4)ncc3Cl)n2)CCOCC1` [Compound 570], under “neutral species”, the pIC50 is 8.87.

With `N#CC1(CNc2cccc(-c3cc(N[C@H]4CC[C@H](N[C@H]5CCCC[C@@H]5O)CC4)ncc3Cl)n2)CCOCC1` [Compound 588], for the setting “neutral species”, the pIC50 is above 9.00.

In the case of `N#CC1(CNc2cccc(-c3cc(N[C@H]4CC[C@H](O)CC4)ncc3F)n2)CCOCC1` [Compound 576], the pIC50 (TFA salt) is 9.86.

As for `N#CC1(CNc2cccc(-c3cc(N[C@H]4CC[C@H](NCC5(O)CC5)CC4)ncc3Cl)n2)CCOCC1` [Compound 560], for the setting “neutral species”, the pIC50 is 9.32.

With `CC(C)(C)OCCN[C@H]1CC[C@H](Nc2cc(-c3cccc(NCC4(C#N)CCOCC4)n3)c(F)cn2)CC1` [Compound 527], the pIC50 (neutral species) is 9.23.

In the case of `C[C@H](CO)N[C@H]1CC[C@H](Nc2cc(-c3cncc(OCC4(C#N)CCOCC4)n3)c(Cl)cn2)CC1` [Compound 590], the pIC50 (neutral species) is 8.30.

For `CC(O)(CN[C@H]1CC[C@H](Nc2cc(-c3cccc(NCC4(C#N)CCOCC4)n3)c(Cl)cn2)CC1)C(F)(F)F` (stereo partly drawn) [Compound 539], under “neutral species”, the pIC50 was 9.27 and 9.33.

As for `CO[C@H]1CCN([C@H]2CC[C@H](Nc3cc(-c4cccc(NCC5(C#N)CCOCC5)n4)c(Cl)cn3)CC2)C1` [Compound 514], the pIC50 runs as follows: (TFA salt) 9.08; (neutral species) 9.26.

In the case of `N#CC1(COc2cncc(-c3cc(N[C@H]4CC[C@@H](N5CCCOCC5)CC4)ncc3Cl)n2)CCOCC1` [Compound 549], for the setting “neutral species”, the pIC50 is 7.26.

Turning to `COC[C@H](C)N[C@H]1CC[C@H](Nc2cc(-c3cncc(OCC4(C#N)CCOCC4)n3)c(Cl)cn2)CC1` [Compound 586], the pIC50 (neutral species) is 9.00.

For the compound `COC[C@H](C)N[C@H]1CC[C@@H](Nc2cc(-c3cccc(NCC4(C#N)CCOCC4)n3)c(Cl)cn2)CC1` [Compound 602], the pIC50 (neutral species) was 8.09.

For `N#CC1(CNc2cccc(-c3cc(N[C@H]4CC[C@H](NCCO)CC4)ncc3Cl)n2)CCOCC1` [Compound 572], the pIC50 (neutral species) was 9.52.

With `COC[C@@H](C)N[C@H]1CC[C@H](Nc2cc(-c3cncc(OCC4(C#N)CC4)n3)c(F)cn2)CC1` [Compound 557], the pIC50 (neutral species) was 9.42.

For the compound `COCCN[C@H]1CC[C@H](Nc2cc(-c3cncc(OCC4(C#N)CCOCC4)n3)c(F)cn2)CC1` [Compound 559], the pIC50 by setting is: (TFA salt) 9.69; (neutral species) 9.29.

Turning to `[2H]C([2H])([2H])OC[C@H](C)N[C@H]1CC[C@H](Nc2cc(-c3cncc(OCC4(C#N)CCOCC4)n3)c(Cl)cn2)CC1` [Compound 598], the pIC50 (neutral species) was 9.00.

For `N#CC1(CNc2cccc(-c3cc(N[C@H]4CC[C@H](CN5CCOCC5)CC4)ncc3Cl)n2)CCOCC1` [Compound 536], the pIC50 was 8.73 (TFA salt) and 8.68 (neutral species).

Consider `COCC(C)NC[C@H]1CC[C@H](Nc2cc(-c3cccc(NCC4(C#N)CCOCC4)n3)c(Cl)cn2)CC1` (stereo partly drawn) [Compound 526], for which the pIC50 (neutral species) is 8.92.

Consider `COC[C@@H](C)N[C@H]1CC[C@H](Nc2cc(-c3cncc(OCC4(C#N)CCOCC4)n3)c(F)cn2)CC1` [Compound 553], for which the pIC50 was 9.14 and 9.58 and 9.24 (TFA salt); 9.18 (neutral species).

`COCCN[C@H]1CC[C@H](Nc2cc(-c3cncc(OCC4(C#N)CC4)n3)c(F)cn2)CC1` [Compound 556]: the pIC50 (neutral species) was 9.20.

With `COC[C@@H](C)N(O)[C@H]1CC[C@H](Nc2cc(-c3cncc(OCC4(C#N)CCOCC4)n3)c(Cl)cn2)CC1` [Compound 581], where the note is “neutral species”, the pIC50 was 9.00.

As to `CC(C)(O)CN[C@H]1CC[C@H](Nc2cc(-c3cccc(NCC4(C#N)CCOCC4)n3)c(F)cn2)CC1` [Compound 522], under “neutral species”, the pIC50 is 9.38.

Take `COC[C@@H](C)N[C@H]1CC[C@H](Nc2cc(-c3cccc(NCC4(C#N)CC4)n3)c(F)cn2)CC1` [Compound 551]: the pIC50 (TFA salt) was 10.12 and 9.55 and 10.03; the pIC50 (neutral species) was 9.53 and 9.52 and 9.18.

For the compound `COC[C@H](C)N[C@H]1CC[C@H](Nc2cc(-c3cncc(OCC4(C#N)CCOCC4)n3)c(F)cn2)CC1` [Compound 589], under “neutral species”, the pIC50 is 9.00.

On to `COC(C)(C)CN[C@H]1CC[C@H](Nc2cc(-c3cccc(NCC4(C#N)CCOCC4)n3)c(Cl)cn2)CC1` [Compound 529], for which, for the setting “neutral species”, the pIC50 was 9.55.

Take `CC(C)(C)OCCN(CCOC(C)(C)C)[C@H]1CC[C@H](Nc2cc(-c3cccc(NCC4(C#N)CCOCC4)n3)c(Cl)cn2)CC1` [Compound 518]: where the note is “TFA salt”, the pIC50 was 8.07.

For the compound `[2H][C@](C)(COC)N[C@H]1CC[C@H](Nc2cc(-c3cccc(NCC4(C#N)CCOCC4)n3)c(Cl)cn2)CC1` [Compound 597], for the setting “neutral species”, the pIC50 is above 9.00.

In the case of `[2H]C([2H])([2H])OCC(C)N[C@H]1CC[C@H](Nc2cc(-c3cncc(OCC4(C#N)CCOCC4)n3)c(Cl)cn2)CC1` (stereo partly drawn) [Compound 595], under “neutral species”, the pIC50 is above 9.00.

On to `N#CC1(COc2cncc(-c3cc(N[C@H]4CC[C@H](NCCF)CC4)ncc3Cl)n2)CCOCC1` [Compound 550], for which the pIC50 (neutral species) was 9.37.

Turning to `COC[C@@H](C)N[C@H]1CC[C@@H](Nc2cc(-c3cccc(NCC4(C#N)CCOCC4)n3)c(Cl)cn2)CC1` [Compound 601], the pIC50 (neutral species) was 7.60.

On to `CC(C)(O)CN[C@H]1CC[C@H](Nc2cc(-c3cncc(OCC4(C#N)CCOCC4)n3)c(Cl)cn2)CC1` [Compound 524], for which the pIC50 (neutral species) is 9.07.

In the case of `N#CC1(CNc2cccc(-c3cc(N[C@H]4CC[C@@H](N5CCn6c(nnc6C(F)(F)F)C5)CC4)ncc3Cl)n2)CCOCC1` [Compound 530], the pIC50 (neutral species) is 7.43.

Take `N#CC1(COc2cncc(-c3cc(NC4CCCNCC4)ncc3Cl)n2)CCOCC1` (stereo not drawn) [Compound 583]: the pIC50 (neutral species) is 7.96.

`C[C@](O)(CN[C@H]1CC[C@H](Nc2cc(-c3cccc(NCC4(C#N)CCOCC4)n3)ccn2)CC1)C(F)(F)F` [Compound 579]: for the setting “TFA salt”, the pIC50 is 9.04.

Consider `N#CC1(CN[C@H]2CC[C@H](Nc3cc(-c4cncc(OCC5(C#N)CCOCC5)n4)c(Cl)cn3)CC2)CC1` [Compound 567], for which the pIC50 (neutral species) is 9.12 and 9.55.

For the compound `N#CC1(COc2cncc(-c3cc(N[C@H]4CC[C@H](N5CCCOCC5)CC4)ncc3Cl)n2)CCOCC1` [Compound 548], the pIC50 (neutral species) was 9.00.

In the case of `N#CC1(COc2cncc(-c3cc(N[C@H]4CC[C@H](NCCC(F)(F)F)CC4)ncc3Cl)n2)CCOCC1` [Compound 562], the pIC50 was 9.49 (TFA salt) and 9.26 (neutral species).

Take `CO[C@H]1CCN([C@H]2CC[C@@H](Nc3cc(-c4cccc(NCC5(C#N)CCOCC5)n4)c(F)cn3)CC2)C1` [Compound 517]: where the note is “neutral species”, the pIC50 is 8.07.

In the case of `COCCN[C@H]1CC[C@H](Nc2cc(-c3ccc(F)c(NCC4(C)CCOCC4)n3)c(Cl)cn2)CC1` [Compound 565], the pIC50 reads like this: (TFA salt) 9.36 and 9.65; (neutral species) 9.48 and 9.51.

Regarding `N#CC1(CNc2cccc(-c3cc(N[C@H]4CC[C@H](N[C@H]5CCCC[C@@H]5O)CC4)ncc3Cl)n2)CCOCC1` [Compound 523], the pIC50 (TFA salt) was 9.48.

As for `C[C@@](O)(CN[C@H]1CC[C@H](Nc2cc(-c3cncc(OCC4(C#N)CCOCC4)n3)c(Cl)cn2)CC1)C(F)(F)F` [Compound 582], where the note is “neutral species”, the pIC50 was 9.00.

As to `C[C@@H](O)CN[C@H]1CC[C@H](Nc2cc(-c3cccc(NCC4(C#N)CCOCC4)n3)c(Cl)cn2)CC1` [Compound 585], where the note is “neutral species”, the pIC50 was above 9.00.

For `C[C@@](O)(CN[C@H]1CC[C@H](Nc2cc(-c3cccc(NCC4(C#N)CCOCC4)n3)c(Cl)cn2)CC1)C(F)(F)F` [Compound 577], for the setting “TFA salt”, the pIC50 was 9.36 and 9.59.

For the compound `COC[C@@H](C)N[C@H]1CC[C@H](Nc2cc(-c3cncc(OCC4(C#N)CCOCC4)n3)c(Cl)cn2)CC1` [Compound 552], the pIC50 is 9.07 and 8.98 and 9.42 (TFA salt); 8.95 (neutral species).

`N#CC1(CNc2cccc(-c3cc(N[C@H]4CC[C@H](N5CCn6c(nnc6C(F)(F)F)C5)CC4)ncc3Cl)n2)CCOCC1` [Compound 528]: under “neutral species”, the pIC50 was 8.11.

Take `COC[C@@H](C)N[C@H]1CC[C@H](Nc2cc(-c3cccc(NCC4(C#N)CCOCC4)n3)c(F)cn2)CC1` [Compound 519]: the pIC50 runs as follows: (TFA salt) 9.60 and 9.66 and 9.63 and 9.42; (neutral species) 9.63.

As to `C[C@H](CO)N[C@H]1CC[C@H](Nc2cc(-c3cncc(OCC4(C#N)CCOCC4)n3)c(F)cn2)CC1` [Compound 592], where the note is “neutral species”, the pIC50 was above 9.00.

In the case of `COCCN(C1CC1)[C@H]1CC[C@H](Nc2cc(-c3cncc(OCC4(C#N)CCOCC4)n3)c(F)cn2)CC1` [Compound 555], the pIC50 (neutral species) is 8.67.
